Measurements published in US6939865B2, “Pharmaceutical dronedarone composition for parenteral administration” (Sanofi-Aventis, priority 2000, dated 2005).
Counter-ions that a name gives are not always drawn. Like-named read-outs stand apart in the source and are kept apart here.

Legend:
[1] = Aqueous solubility of dronedarone hydrochloride; format: physicochemical
Text: As indicated above, the above β-cyclodextrin derivatives, when they are used in combination with an appropriate buffer, for example a phosphate buffer, in the compositions of the invention, make it possible in particular to increase the aqueous solubility of dronedarone or of its pharmaceutically acceptable salts.

male rats = assay: Local tolerance in animals (intravenous injection in caudal vein); format: in vivo; settings: several days
Method: Tests were carried out for the purpose of evaluating the local tolerance of various aqueous compositions comprising dronedarone hydrochloride or only the corresponding vehicle as placebo.
To this end, a dose of one the aqueous compositions hereinbelow was administered daily for 5 days via the intravenous route to batches of 5 male rats. The injection was made in the caudal vein, preferably in the distal region, then in the median region and finally in the proximal region. The animals were then sacrificed on the 8th day and the tails were removed for the purpose of possible microscopic examination.

[2] = Surface tension in aqueous solution (surfactant properties); format: physicochemical; settings: with or without phosphate buffer
Method: This surfactant nature moreover proves to be as powerful in the presence as in the absence of a phosphate buffer and can be held as being partially responsible for a self-aggregation of dronedarone molecules in aqueous solution. In fact, this supramolecular organization in solution is due to the formation of dimers positioned head to tail and stacked in superimposed layers. These dimers, when they are administered by injection, lead to rupturing of the cell membrane and, consequently, to the appearance of inflammation at the injection site. Generally, these surfactant properties of dronedarone can be regarded as responsible for poor tolerance of the composition in which they are present.

In the case of CCCCc1oc2ccc(NS(C)(=O)=O)cc2c1C(=O)c1ccc(OCCCN(CCCC)CCCC)cc1 [dronedarone hydrochloride, 2-butyl-3-(4-[[3-(dibutylamino)propoxy]]benzoyl)-5-(methanesulphonamido)benzofuran], the solubility ([1]; aqueous medium, aqueous buffer, ambient temperature, pH=4.85, read-out: solubility in an aqueous medium) is reported as 500 µg/mL, the solubility ([1]; mono-sodium phosphate buffer (NaH2PO4), aqueous buffer, ambient temperature, pH range from 1.5 to 5, read-out: solubility in the presence of a mono-sodium phosphate buffer (NaH2PO4)) is reported as 2000 to 2250 µg/mL and the “solubility in an aqueous medium” value ([1]; pH range from 1.5 to 5) is reported as “virtually constant”. The “solubility in an aqueous medium” value ([1]; pH values of greater than 5.5) was “virtually negligible”, the “solubility in the presence of a mono-sodium phosphate buffer (NaH2PO4)” value ([1]; pH=5.5) was “virtually zero” and the solubility ([1]; phosphate buffer with hydroxypropyl-β-cyclodextrin, aqueous with cosolvent or surfactant or cyclodextrin, 100 mmolar phosphate buffer and 5% of hydroxypropyl-β-cyclodextrin, read-out: solubility) was about 6500 µg/mL. The “tolerance at the injection site” value (male rats; aqueous formulation 1.065 mg/ml dronedarone hydrochloride with hydroxypropyl-β-cyclodextrin) was “marked intolerance” and the local tolerance (male rats; aqueous formulation 1.065 mg/ml dronedarone hydrochloride with phosphate buffer) was “poor local tolerance”.
In the case of CCCCc1oc2ccc(NS(C)(=O)=O)cc2c1C(=O)c1ccc(OCCCN(CCCC)CCCC)cc1 [dronedarone, 2-butyl-3-(4-[[3-(dibutylamino)propoxy]]benzoyl)-5-(methanesulphonamido)benzofuran], the “effect on surface tension” value [2] is reported as “marked decrease”.
